Several values for one entry are separate records, joined by “and”; a condition that tells them apart may be missing. Equal entries are not always repeated.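 Method: 48-hour compound exposure of cells in 96-well plates, five concentrations, linear interpolation of endpoints. GI50 marks 50% less growth. TGI: total growth inhibition.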
Legend:
Test in all cases: NCI tumour cell line growth inhibition, 48 h
[1] = test system: HOP-62 NSCLC
[2] = test system: COLO 205 colon
[3] = test system: HL-60(TB) leukemia
[4] = test system: HT29 colon
[5] = test system: OVCAR-5 ovarian
[6] = test system: U251 CNS
[7] = test system: MALME-3M melanoma
[8] = test system: IGROV1 ovarian
[9] = test system: RPMI-8226 leukemia
[10] = test system: NCI-H226 lung

Structure (SMILES)	GI50 [1] [µM]	TGI [1]	GI50 [2]	TGI [2] [µM]	GI50 [3] [µM]	TGI [3] [µM]	GI50 [4] [µM]	TGI [4]	GI50 [5] [µM]	TGI [5] [µM]	GI50 [6] [µM]	TGI [6]	GI50 [7] [µM]	TGI [7]	GI50 [8] [µM]	TGI [8] [µM]	GI50 [9]	TGI [9] [µM]	GI50 [10] [µM]	TGI [10]
O=C1OCC2=C1C(c1ccccc1)c1cc3c(cc1N2CCO)OCO3 (stereo unspecified)	4.08	> 50 µM	2.71 µM	17.1	3.46	> 50	1.72	> 50 µM	13.4	> 50	3.01	> 50 µM	> 50	> 50 µM	2.91	> 50	3.09 µM	> 50	> 50	> 50 µM
O=c1oc2ccccc2[n+]([O-])c1-c1ccccc1		> 100 µM		> 100		> 100		> 100 µM		> 100		> 100 µM		> 100 µM		> 100		> 100		> 100 µM
CC(C)(C)c1cc(C=C(C#N)C#N)cc(C(C)(C)C)c1O		6.87 µM and 1.65 µM	0.363 µM and 0.191 µM	0.369		2.48	0.33	7.81 µM and 10.6 µM	0.402		0.359	23.1 µM and 11.5 µM	0.507	15.4 µM and 8.08 µM	0.493	> 247	0.101 µM and 0.0877 µM		0.371	1.51 µM and 14.8 µM
COc1ccc(C(=O)c2ccc([As]=O)cc2)cc1 (stereo unspecified)	0.0412	0.183 µM	0.041 µM	0.166	0.106	0.346	0.0489	0.236 µM	0.144	0.292	0.0218	0.0615 µM	0.0281	0.0861 µM	0.0363	0.158	0.0224 µM	0.0643	0.169	0.459 µM
CSC1=Nc2ccccc2N=C(c2ccc(Cl)cc2)C1		> 100 µM		> 100		> 100		90 µM		> 100		> 100 µM		92.6 µM		> 100		> 100		> 100 µM
O=C(/C=C/c1ccccc1)CC(=O)CCC(=O)Nc1ccc(Cl)cc1		> 100 µM		> 100		> 100		> 100 µM		> 100		> 100 µM		> 100 µM		> 100		> 100		> 100 µM
C=C1C(=O)O[C@H]2[C@H]1CC/C(C=Nc1c(N)cc(C(F)(F)F)cc1Br)=C\CC[C@@]1(C)O[C@@H]21	2.17	4.82 µM	1.6 µM	3.16	0.397	2.48	1.63	3.13 µM	1.83	3.75	1.69	3.17 µM	1.71	3.34 µM	1.42	3.01	0.399 µM	2.37	2.09	5.29 µM
CNC(=O)c1nn(C)c2c1C(C)(C)Cc1cnc(Nc3ccc(N4CCN(C)CC4)cc3)nc1-2	0.435	9.84 µM	0.313 µM	3.12	0.695	> 10	0.94	> 10 µM	0.504	> 9.01	0.846	> 10 µM	0.431	> 9.24 µM	0.182	1.6	0.475 µM	> 3.98	0.958	> 8.57 µM
CC(=O)O[C@H]1CCc2c(cc(N)c3c2C(=O)C[C@]2(C)C([C@H](C)CCCC(C)C)CCC32C)C1(C)C (stereo partly specified)		> 100 µM		> 100		> 100		> 100 µM		> 100		> 100 µM		> 100 µM		> 100		> 100		> 100 µM
CCOC(=O)c1cc2c3c(c(O)c(OC)c2s1)N(C(=O)c1cc2c4c(c(O)c(OC)c2s1)N(C(C)=O)CC4)CC3		> 100 µM		> 100		> 100		> 100 µM		> 100		> 100 µM		> 100 µM		> 100		> 100		> 100 µM
CCNC(=O)COc1ccc(Cl)cc1Cl		> 100 µM		> 100		> 100		> 100 µM		> 100		> 100 µM		> 100 µM		> 100		> 100		> 100 µM
CC(C)CCC1(CCN)C(=O)NC(=O)NC1=O		> 100 µM		> 100		66.7		> 100 µM		> 100		> 100 µM		> 100 µM		> 100		> 100		> 100 µM
O=c1c2cc(Br)ccc2nc(CCl)n1-c1ccc(O)c([N+](=O)[O-])c1		36.1 µM		37.8		49.5		68.2 µM		> 100		> 100 µM		33.4 µM		51.6		47.8		29.3 µM
Cc1cc(N(CCC#N)CCC#N)ccc1/C=C(\NC(=O)/C=C/c1ccccc1)C(=O)NN		> 90.3 µM		> 100		> 100		> 100 µM		> 100		> 78 µM		> 100 µM		> 100		> 100		> 90.2 µM
CSC(=S)N/N=C/c1nccc2ccccc12		10.1 µM		1.58		6.69		> 67.5 µM		8.96		6.99 µM		32.7 µM		8.05		11.6		12 µM
CN(C)CCNC(=O)Cn1ccc(=O)c2c([N+](=O)[O-])cccc21		> 100 µM		> 100		> 100		> 100 µM		> 100		> 100 µM		> 100 µM		> 100		> 100		> 100 µM
C=CC(OCC)(OCC)OCC		> 100 µM		> 100		> 100		> 100 µM		> 100		> 100 µM		> 100 µM		> 100		> 100		> 100 µM
CN(C)C(=O)O[C@H]1CN[C@H](C#Cc2cc3ncnc(Nc4ccc(OCc5cccc(F)c5)c(Cl)c4)c3s2)C1	> 23.4	> 25 µM	> 18.6 µM	> 25	5.22	15	> 23	> 25 µM	> 25	> 25	14.7	> 25 µM	5.15	14.5 µM	4.61	> 25	4.63 µM	15.2	5.49	19.2 µM
O=C(O)c1ccccc1/C=N/N=C1c2ccccc2-c2ccccc21		> 100 µM		> 100		80.8		> 100 µM		> 100		55.6 µM		> 100 µM		> 100		48.2		41.6 µM

Source: PubChem BioAssay (NCI)
